≈ marks a conversion by molar mass, not a printed value. Entries after “also recorded” stand apart in the source; their conditions may differ. Where two headings read alike, the source gives them in different places.

One data set has as its system T. cruzi amastigotes. As to the kind of experiment: Inhibition of intracellular amastigotes, β-galactosidase transfected parasites in Raw 264.7 cells (CPRG). Conditions: Trypanosoma cruzi. In kind it is cell-based. The procedure: (§1) Trypanosoma cruzi epimastigotes (RA strain) were grown in a biphasic medium. Cultures were routinely maintained by weekly passages at 28°C. T. cruzi bloodstream trypomastigotes (RA strain) and the recombinant Tulahuen strain expressing β-galactosidase (Tul-β-Gal) were obtained from infected CF1 mice by cardiac puncture at the peak of parasitemia on day 15 post-infection. Trypomastigotes were routinely maintained by infecting 21-day-old CF1 mice.
The effect of each compound on intracellular forms of T. cruzi was assayed using β-galactosidase transfected parasites. Briefly, 96-well plates were seeded with Raw 264.7 cells at 5x10^3 per well in […] of culture medium and incubated for 24 h at 37 °C in a 5% CO2 atmosphere. Cells were washed and infected with transfected blood trypomastigotes expressing β-galactosidase at a parasite/cell ratio of 10:1. After 12 h of co- culture, plates were washed twice with PBS to remove unbound parasites and each pure compound was added at different concentrations (0.001–50 μg/mL) in 150 μL of fresh complete RPMI medium without phenol red (Gibco, Rockville, MD). Controls included infected untreated cells (100% infection control) and uninfected cells (0% infection control). The assay was developed 5 days later by the addition of chlorophenol red-β-D-galactopyranoside (CPRG) (100 mM) and 1% Nonidet P40. Plates were then incubated for 4–6 h at 37 °C and the absorbance was measured at 595 nm in a microplate reader (Bio-Rad Laboratories, Hercules, CA). The percentage inhibition was calculated as 100–{[(absorbance of treated infected cells)/(absorbance of untreated infected cells) x 100} and the IC50 value was estimated. Benznidazole was used as positive control.

Data set [1] has as its system T. cruzi bloodstream trypomastigotes. As to the kind of experiment: Trypanocidal effect on bloodstream trypomastigotes, live parasite count in Neubauer chamber. Type of data set: cell-based. The conditions noted are these: Trypanosoma cruzi; 24 h, remaining live parasites counted. How it is done:
as §1
The trypanocidal effect of the purified compounds was also tested on bloodstream trypomastigotes. Briefly, mouse blood containing trypomastigotes was diluted in complete RPMI -1640 Medium (Sigma-Aldrich R6504- Batch 029K83102) with 10% (vol/vol) fetal calf serum (FCS) (Internegocios) to adjust the parasite concentration to 3 × 10^5/mL. Parasites were seeded in duplicate in a 96-well microplate in the presence of each compound (0–50 μg/mL) or controls and incubated at 4 °C for 24 h. The number of remaining living parasites in each sample was determined in 5 μL of cell suspension diluted 1/5 in lysis buffer (0.75% NH4Cl, 0.2% Tris, pH 7.2) and counted in a Neubauer chamber. Benznidazole was used as positive control.

The nature of data set [2]: Host cell toxicity, trypan blue exclusion method. Conditions: human. Type of data set: cell-based, human. The procedure:
(§2) The human monocyte leukemia THP1 (ATCC TIB202) cell line were obtained from the vendor. Cells were thawed, expanded and settled at a concentration 5x10^5 in a final volume of 150 μL in a flat-bottom 96-well microplate and cultured at 37°C in a 5% CO2 atmosphere in the absence or presence of increasing concentrations of the pure compounds. After 24 h, the cell viability was determined by the trypan blue exclusion method in the absence and presence of increasing concentrations of the compounds [26]. The 50% cytotoxic concentration (CC50) and the selectivity index (SI = CC50/IC50) were determined for each compound for T. cruzi trypomastigotes and amastigotes.

For data set [3], the system named is human monocyte leukemia THP1 cells. Description: Host cell toxicity, trypan blue exclusion method. Conditions: 24 h. In kind it is cell-based. How it is done:
as §2

For data set [4], the system named is Leishmania braziliensis promastigotes (MHOM/BR/75/M2903 strain). As to the kind of experiment: Growth inhibition of Leishmania braziliensis promastigotes, MTT method. In kind it is cell-based. The conditions noted are these: 72 h, read-out: IC50 on L. braziliensis promastigotes. How it is done: Leishmania braziliensis promastigotes (MHOM/BR/75/M2903 strain) were grown in liver infusion tryptose medium LIT, which was prepared as follows: 5 g/L liver infusion (Sigma 2023-072K1066), 5 g/L tryptose (Britania), 2 g/L glucose (Sigma), 68 mM NaCl, 5.4 mM KCl, 22 mM HPO4Na2, supplemented with 20 mg/L hemin (Sigma) and 10% (vol/vol) fetal calf serum (FCS) (Internegocios). Culture maintenance was performed by weekly passages at 26°C.
The growth inhibition of Leishmania braziliensis promastigotes was evaluated by the MTT method. Parasites (5x10^6) were settled at a final volume of 150 μL in a flat-bottom 96-well microplate and cultured at 37°C in a 5% CO2 atmosphere in the absence or presence of increasing concentrations of the pure compounds. After 72 h, 3-(4,5- dimethylthiazol-2-yl)-2,5-diphenyltetrazolium bromide (MTT) was added at a final concentration of 1.5 mg/mL. Plates were incubated for 2 h at 37°C. The purple formazan crystals formed were completely dissolved by adding 150 μL of ethanol and the absorbance was read at 595 nm in a microplate reader. The inhibition percentage was calculated as {100 − [(DO595nm of treated parasites/ DO595nm of untreated parasites) × 100]}. Compounds were tested at 0–50 μg/mL. Amphotericin B was used as positive control.
(Tetrazolium dyes change colour on reduction, which living cells bring about.)

Data set [5] has as its system T. cruzi epimastigotes (RA strain). Description: T. cruzi epimastigotes growth inhibition, [3H] thymidine uptake assay. In kind it is cell-based, Trypanosoma cruzi. The conditions noted are these: for IC50: Trypanosoma cruzi, read-out: IC50 on T. cruzi epimastigotes. How it is done: as §1
The evaluation of T. cruzi epimastigotes growth inhibition was performed by the [^3H] thymidine uptake assay. Briefly, exponentially growing epimastigotes were adjusted to a cell density of 1.5 × 10^6 parasites/mL in fresh medium. Parasites were allowed to grow for 72 h at 28°C in medium with or without different concentrations of each compound (0–5 μg/mL) in triplicate. Percent of inhibition was calculated as {100 − [(cpm of treated parasites/ cpm of untreated parasites) × 100]}. The compound concentration at which the parasite growth was inhibited by 50% (IC50) was determined after 72 h. Benznidazole was used as positive control.

Another data set concerns IL-12. As to the kind of experiment: Cytokine production by macrophages, IL-12 sandwich ELISA. Type of data set: cell-based. Conditions: RAW 264.7 macrophages, 24 h. The procedure: […] After 24 h, supernatants were collected and stored at -80 °C until cytokine analysis. IL-12 and TNF-α levels were determined by sandwich ELISA (BD Pharmingen, and R&D System, Minneapolis, MN, respectively) according to manufacturer’s instructions. Supplied standards were used to generate a standard curve.

Another data set has as its system TNF-α. Description: Cytokine production by macrophages, TNF-α sandwich ELISA. Type of data set: cell-based. Conditions: RAW 264.7 macrophages, 25 μg/mL, 24 h, p<0.01. The procedure:
RAW 264.7 (ATCC TIB71) macrophage cell line were obtained from ATCC and cultured (1×10^5) in duplicate in 24-well plates in the presence of 2.5 or 25 μg/mL of Compound 3, LPS (10 μg/mL) plus INF-γ (0.30 μg/mL) (positive control), or medium alone (negative control). After 24 h, supernatants were collected and stored at -80 °C until cytokine analysis. IL-12 and TNF-α levels were determined by sandwich ELISA (BD Pharmingen, and R&D System, Minneapolis, MN, respectively) according to manufacturer’s instructions. Supplied standards were used to generate a standard curve.
On the technique in general: An ELISA detects its analyte on a solid surface through an enzyme-linked reagent.

A further data set concerns T. cruzi (RA strain). As to the kind of experiment: Animal model of T. cruzi infection (acute, lethal dose). Type of data set: in vivo, Balb/c mice. The procedure:
Inbred male Balb/c mice were nursed at the Departamento de Microbiología, Facultad de Medicina, Universidad de Buenos Aires. Groups of six Balb/c male mice (6 to 8 weeks old) were infected with 1000 bloodstream T. cruzi trypomastigotes by the intraperitoneal route. Five days after infection, the presence of circulating parasites was confirmed by the microhematocrit method (Sülsen et al., 2013). Mice were treated daily with compound 3 or benznidazole (1 mg/kg of body weight/day) for five consecutive days (days 4 to 8 post-infection) by the intraperitoneal route. Drugs were resuspended in DMSO and then adjust to concentration in 0.1 M phosphate buffered saline (PBS, pH 7.2); this vehicle was also employed as a negative control. Levels of parasitemia were monitored every 2 days in 5 μL of blood diluted 1:5 in lysis buffer (0.75% NH4Cl, 0.2% Tris, pH 7.2) by counting parasites in a Neubauer chamber. The number of animal deaths was recorded daily.
The weight of each animal was evaluated during the acute phase of infection. Results were expressed as the ratio between the weight on each day and the weight registered the day of the infection multiplied by 100.
Parasitemia and weight loss were analyzed using a non parametric test: Mann-Whitney test. The survival curves were analyzed with a log rank test.

[6] abbreviates: RAW264.7, β-galactosidase expressing T. cruzi in mammalian cells, read-out: IC50 on T. cruzi amastigotes.
[7] abbreviates: THP1 (ATCC TIB202) monocyte leukemia cells.
Setting [8] is: 72 h, 28°C, [3H] thymidine uptake.
Setting [9] is: infected Balb/c mice, 1 mg/kg/day i.p., days 4 to 8 post-infection.

In general, IC50 refers to the midpoint of a concentration-inhibition curve. By CC50 is commonly meant the concentration giving 50% cytotoxicity. For `C[C@H]1C(=O)O[C@H]2C[C@]3(C)O[C@H]3[C@@H]3O[C@@H]3C3=C[C@@H](OC3=O)[C@@H]21` [dihydromikanolide], the half-maximal inhibitory concentration (IC50) with T. cruzi amastigotes (setting [6]) amounted to 8.5 µg/mL (≈ 29.1 µM); in data set [1], 0.3 µg/mL (≈ 1.03 µM); in data set [4] (MTT), 57.1 µg/mL (≈ 195 µM); in data set [5] (setting [8]) it was 2.5 µg/mL (≈ 8.55 µM). In addition, the CC50 at 24 h in data set [2] (setting [7]) came out at 13 µg/mL (≈ 44.4 µM). For the same molecule, in data set [3], the CC50 turned out to be 13.0 µg/mL (≈ 44.5 µM).

As for `C=C1C(=O)OC2CC3(C)OC3C3OC3C3=CC(OC3=O)C12` (centres unmarked) [mikanolide], the IC50 with T. cruzi amastigotes (RAW264.7, read-out: IC50 on T. cruzi amastigotes) turned out to be 4.5 µg/mL (≈ 15.5 µM); in data set [1], 2.1 µg/mL (≈ 7.23 µM); in data set [4], 5.1 µg/mL (≈ 17.6 µM); in data set [5], 0.7 µg/mL (≈ 2.41 µM). The same molecule had a CC50 at 24 h in data set [2] (THP1 cells) of 22.3 µg/mL (≈ 76.8 µM).

On to `C[C@@H]1[C@H](O)[C@@H](C)/C=C/C=C/C=C/C=C/C=C/C=C/C=C/[C@H](O[C@@H]2O[C@H](C)[C@@H](O)[C@H](N)[C@@H]2O)C[C@@H]2O[C@](O)(C[C@@H](O)C[C@@H](O)[C@H](O)CC[C@@H](O)C[C@@H](O)CC(=O)O[C@H]1C)C[C@H](O)[C@H]2C(=O)O` [amphotericin B, reference compound], for which, in [4] (MTT), the IC50 is 0.26 µg/mL (≈ 0.281 µM).

In the case of `C=C1C(=O)OC2CC3(C)OC3CCC3=CC(OC3=O)C12` (centres unmarked) [deoxymikanolide], the IL-12 production result in the data set on IL-12 (2 μg/mL) is “slight increase”; in the data set on IL-12 (25 μg/mL), “higher production rate”. In addition, in the data set on TNF-α, the “secretion of TNF-α compared with negative control” value is “significant increase”. Further, the IC50 turned out to be 6.3 µg/mL (≈ 22.8 µM) with T. cruzi amastigotes (setting [6]), 1.5 µg/mL (≈ 5.43 µM) in [1], 11.5 µg/mL (≈ 41.6 µM) in data set [4] (MTT) and 0.08 µg/mL (≈ 0.29 µM) in data set [5] (setting [8]). This molecule also gave a half-maximal cytotoxic concentration (CC50) at 24 h in [2] (setting [7]) of 79.4 µg/mL (≈ 287 µM). Further, the CC50 in [3] is 79.4 µg/mL (≈ 287 µM). For the same molecule, in the data set with T. cruzi (RA strain) (20 days post infection, p = 0.028), the “weight loss during the acute phase of infection compared to control mice” value was “able to reduce the weight loss”. Besides, in the data set with T. cruzi (RA strain) (setting [9]), the “reduction of area under the parasitemia curve with respect to controls” value is reported as 1.5 fold. Also, the “blood parasitemia compared to controls” value with T. cruzi (RA strain) (infected Balb/c mice, 1 mg/kg/day i.p., days 4 to 8 post-infection, 1 mg/kg/day) is recorded as “decrease the parasitemia; also recorded: lower blood parasitemia”. Also, the “mice surviving the acute phase of infection” value in the data set with T. cruzi (RA strain) (lethal T. cruzi infection, controls 100% mortality by day 22, p = 0.02 Log-rank) stood at 70%.

Turning to `O=C(Cn1ccnc1[N+](=O)[O-])NCc1ccccc1` [benznidazole, reference compound], the IC50 in the data set with T. cruzi amastigotes (setting [6]) was determined as 1.1 µg/mL (≈ 4.23 µM); in data set [1], 10.4 µg/mL (≈ 40 µM); in [5] (setting [8]) it was 1.7 µg/mL (≈ 6.53 µM). Moreover, in the data set on T. cruzi (RA strain) (setting [9]), the “reduction of area under the parasitemia curve with respect to controls” value is on record as 2.3 fold.

Turning to `C=C1C(=O)OC2CC3(C)OC3CC(OC(C)=O)C3=CC(OC3=O)C12` (centres unmarked) [scandenolide], the half-maximal inhibitory concentration (IC50) with T. cruzi amastigotes (setting [6]) stood at 60.6 µg/mL (≈ 181 µM); in [1], 68.4 µg/mL (≈ 205 µM); in data set [4] (MTT), 252 µg/mL (≈ 754 µM); in [5] (setting [8]), 137 µg/mL (≈ 410 µM). Further, it took 864 µg/mL (≈ 2580 µM) to reach half-maximal cytotoxicity in [2] (setting [7]) (CC50 at 24 h). The “activity on Trypanosoma cruzi” value in [5] (in words, all T. cruzi stages (abstract)) was “not active”.
